pIC50: −log10 of the molar value.
Target: T1, PTP-1B (Homo sapiens, UniProt P18031)
T1 construct: PTP-1B (purified, 1 mg/mL) as a 1:250 dilution
T1 sequence (P18031 1-321 limits assumed): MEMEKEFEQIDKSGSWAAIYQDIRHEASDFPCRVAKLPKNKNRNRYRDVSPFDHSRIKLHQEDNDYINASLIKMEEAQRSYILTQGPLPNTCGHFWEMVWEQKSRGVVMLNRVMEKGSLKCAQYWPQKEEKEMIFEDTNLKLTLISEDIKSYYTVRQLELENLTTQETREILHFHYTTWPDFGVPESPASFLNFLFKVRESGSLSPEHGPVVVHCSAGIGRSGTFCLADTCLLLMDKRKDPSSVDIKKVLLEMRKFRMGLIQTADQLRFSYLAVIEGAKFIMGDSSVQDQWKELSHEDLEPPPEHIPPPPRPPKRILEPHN
Test: pNPP tyrosine phosphatase inhibition assay, PTP-1B
Type: biochemical
Details: pNPP assay, PTP-1B; read-out: Activity Class (IC50 ranges)
Protocol: The compounds provided herein are evaluated for biological activity as inhibitors of PTP-1B using, for example, a pNPP assay can be used to screen compounds for tyrosine phosphatase inhibitory activity as described in the Examples.
A 5× stock of pNPP (p-nitrophenol phosphate) substrate is prepared as 50 mM pNPP in assay buffer. Various tyrosine phosphatase solutions can be prepared as follows: • PTP-1B (purified, 1 mg/mL) as a 1:250 dilution (to a final concentration of 4:g/mL); • TC-PTP (NEB, 1000 units in 100:L) as a 1:50 dilution (to a final concentration of 2U/10:L (4:g/mL)); • CD45 (Calbiochem, 20:g, 400 units in 100:L) as a 1:50 dilution (to a final concentration of 0.8U/10:L (4:g/mL)); • LAR (NEB, 1000 units in 200:L) as a 1:75 dilution (to a final concentration of 0.7U/10:L (4:g/mL)); and • PTP-β (UBI, #14-350, 10,000 units, 40:g/571:L) as a 1:17.5 dilution (to a final concentration of 10U/10:L (4:g/mL));
The compound to be tested is prepared as 1:16.7 and 1:50 dilutions from stock in a total volume of […] DMSO to give final concentrations of 626 and 200:M. The reaction mixtures are prepared in a 96-well microtiter plate (on ice) as 55:L assay buffer, 5:L of the diluted compound (to a final concentration of 31.3 and 10:M), 20:L of the pNPP substrate solution (to a final concentration of 10 mM) and 20:L PTPase in assay buffer. The reactants are mixed well, the plate placed in a water bath at 30° C. and incubated for 10 minutes. The reaction is then terminated by adding 100:L of 2M K2CO3 per well, and the absorbance is measured at 405 nm by conventional means.
Unless otherwise indicated, this assay was used to determine activity for the selected compounds whose activity is provided in Table 1.

Compound	pIC50
O=C(O)c1ccc(CN(Cc2ccc(C(=O)O)cc2Br)S(=O)(=O)c2ccccc2)cc1 [Compound 80, 4-([Benzenesulfonyl-(2-bromo-4-carboxybenzyl)-amino]-methyl)-benzoic acid]	< 4.60
O=[N+]([O-])c1ccc(CN(Cc2ccc(Cl)c(Cl)c2)S(=O)(=O)c2ccccc2Cl)cc1 [Compound 81, 2-Chloro-N-(3,4-dichloro-benzyl)-N-(4-nitro-benzyl)-benzenesulfonamide]	< 4.60
O=P(O)(O)C(F)(F)c1ccc(CN(Cc2ccc(Cl)c(Cl)c2)S(=O)(=O)c2ccccc2Cl)cc1Br [Compound 82]	6.60 to 7.00
O=P(O)(O)C(F)(F)c1ccc(CN(Cc2ccc(C(F)(F)P(=O)(O)O)cc2)S(=O)(=O)c2ccccc2F)cc1 [Compound 83, [(4-{[[4-(Difluoro-phosphono-methyl)-benzyl]-(2-fluoro-benzenesulfonyl)-amino]-methyl}-phenyl)-difluoro-methyl]-phosphonic acid]	6.30 to 6.60
O=P(O)(O)C(F)(F)c1ccc(CN(Cc2ccc(C(F)(F)P(=O)(O)O)cc2)S(=O)(=O)c2ccccc2Br)cc1 [Compound 84, {[4-({(2-Bromo-benzenesulfonyl)-[4-(difluoro-phosphono-methyl)-benzyl]-amino}-methyl)-phenyl]-difluoro-methyl}-phosphonic acid]	6.30 to 6.60
COc1ccccc1S(=O)(=O)N(Cc1ccc(C(F)(F)P(=O)(O)O)cc1)Cc1ccc(C(F)(F)P(=O)(O)O)cc1 [Compound 85, [(4-{[[4-(Difluoro-phosphono-methyl)-benzyl]-(2-methoxy-benzenesulfonyl)-amino]-methyl}-phenyl)-difluoro-methyl]-phosphonic acid]	6.30 to 6.60
COc1cccc(S(=O)(=O)N(Cc2ccc(C(F)(F)P(=O)(O)O)cc2)Cc2ccc(C(F)(F)P(=O)(O)O)cc2)c1 [Compound 86, [(4-{[[4-(Difluoro-phosphono-methyl)-benzyl]-(3-methoxy-benzenesulfonyl)-amino]-methyl}-phenyl)-difluoro-methyl]-phosphonic acid]	6.30 to 6.60
O=S(=O)(c1ccccc1Cl)N(Cc1ccc(NS(=O)(=O)C(F)(F)F)cc1)Cc1ccc(Cl)c(Cl)c1 [Compound 87, 2-Chloro-N-(3,4-dichloro-benzyl)-N-(4-trifluoromethanesulfonylamino-benzyl)-benzenesulfonamide]	< 4.60
CCNc1ccc(S(=O)(=O)C(F)(F)F)cc1NC(=O)C1CCN(S(=O)(=O)c2cccs2)CC1 [Compound 88, 1-(Thiophene-2-sulfonyl)-piperidine-4-carboxylic acid (2-ethylamino-5-trifluoromethanesulfonyl-phenyl)-amide]	< 4.60
COc1ccc(S(=O)(=O)N(Cc2ccc(C(F)(F)P(=O)(O)O)cc2)Cc2ccc(C(F)(F)P(=O)(O)O)cc2)cc1 [Compound 89, [(4-{[[4-(Difluoro-phosphono-methyl)-benzyl]-(4-methoxy-benzenesulfonyl)-amino]-methyl}-phenyl)-difluoro-methyl]-phosphonic acid]	6.30 to 6.60
O=P(O)(O)C(F)(F)c1ccc(CN(Cc2ccc(C(F)(F)P(=O)(O)O)cc2)S(=O)(=O)c2ccccc2C(F)(F)F)cc1 [Compound 90, [(4-{[[4-(Difluoro-phosphono-methyl)-benzyl]-(2-trifluoromethyl-benzenesulfonyl)-amino]-methyl}-phenyl)-difluoro-methyl]-phosphonic acid]	6.30 to 6.60
O=P(O)(O)C(F)(F)c1ccc(CN(Cc2ccc(C(F)(F)P(=O)(O)O)cc2)S(=O)(=O)c2cccc(Cl)c2Cl)cc1 [Compound 91, {[4-({(2,3-Dichloro-benzenesulfonyl)-[4-(difluoro-phosphono-methyl)-benzyl]-amino}-methyl)-phenyl]-difluoro-methyl}-phosphonic acid]	4.60 to 5.60
COC(=O)c1ccccc1S(=O)(=O)N(Cc1ccc(C(F)(F)P(=O)(O)O)cc1)Cc1ccc(C(F)(F)P(=O)(O)O)cc1 [Compound 92, 2-{Bis-[4-(difluoro-phosphono-methyl)-benzyl]-sulfamoyl}-benzoic acid methyl ester]	4.60 to 5.60
O=P(O)(O)C(F)(F)c1ccc(CN(Cc2ccc(C(F)(F)P(=O)(O)O)cc2)S(=O)(=O)c2ccccc2-c2ccccc2)cc1 [Compound 93, {[4-({(Biphenyl-2-sulfonyl)-[4-(difluoro-phosphono-methyl)-benzyl]-amino}-methyl)-phenyl]-difluoro-methyl}-phosphonic acid]	6.30 to 6.60
O=C(O)c1ccc(CN(Cc2ccc(Cl)c(Cl)c2)S(=O)(=O)c2ccccc2Cl)cc1Br [Compound 94, 2-Bromo-4-{[(2-chloro-benzenesulfonyl)-(3,4-dichloro-benzyl)-amino]-methyl}-benzoic acid]	< 4.60
O=C(NS(=O)(=O)C(F)(F)F)c1ccc(CN(Cc2ccc(Cl)c(Cl)c2)S(=O)(=O)c2ccccc2Cl)cc1Br [Compound 95, N-(3-Bromo-4-trifluoromethanesulfonylaminocarbonyl-benzyl)-2-chloro-N-(3,4-dichloro-benzyl)-benzenesulfonamide]	< 4.60
N#Cc1ccccc1S(=O)(=O)N(Cc1ccc(Cl)c(Cl)c1)Cc1ccc(C(F)(F)P(=O)(O)O)c(Br)c1 [Compound 97, [(2-Bromo-4-{[(3,4-dichloro-benzyl)-(2-cyanobenzenesulfonyl)-amino]-methyl}-phenyl)-difluoro-methyl]-phosphonic acid]	6.30 to 6.60
O=P(O)(O)C(F)(F)c1ccc(CN(Cc2ccc(Cl)c(Cl)c2)S(=O)(=O)c2ccccc2OC(F)(F)F)cc1Br [Compound 98, [(2-Bromo-4-{[(3,4-dichloro-benzyl)-(2-trifluoromethoxy-benzenesulfonyl)-amino]-methyl}-phenyl)-difluoro-methyl]-phosphonic acid]	6.30 to 6.60
O=P(O)(O)C(F)(F)c1ccc(CN(Cc2ccc(C(F)(F)P(=O)(O)O)c(Br)c2)S(=O)(=O)c2ccc3ccccc3c2)cc1Br [Compound 99, [(2-Bromo-4-{[[3-bromo-4-(difluoro-phosphono-methyl)-benzyl]-(naphthalene-2-sulfonyl)-amino]-methyl}-phenyl)-difluoro-methyl]-phosphonic acid]	> 7.00
O=P(O)(O)C(F)(F)c1ccc(CN(Cc2ccc(Cl)c(Cl)c2)S(=O)(=O)c2ccccn2)cc1Br [Compound 100, [(2-Bromo-4-{[(3,4-dichloro-benzyl)-(pyridine-2-sulfonyl)-amino]-methyl}-phenyl)-difluoro-methyl]-phosphonic acid]	6.30 to 6.60
COc1ccccc1S(=O)(=O)N(Cc1ccc(Cl)c(Cl)c1)Cc1ccc(C(F)(F)P(=O)(O)O)c(Br)c1 [Compound 101, [(2-Bromo-4-{[(3,4-dichloro-benzyl)-(2-methoxy-benzenesulfonyl)-amino]-methyl}-phenyl)-difluoro-methyl]-phosphonic acid]	6.60 to 7.00
CS(=O)(=O)c1ccc(CN(Cc2ccc(C(F)(F)P(=O)(O)O)c(Br)c2)S(=O)(=O)c2ccccc2Cl)cc1 [Compound 102, [(2-Bromo-4-{[(2-chloro-benzenesulfonyl)-(4-methanesulfonyl-benzyl)-amino]-methyl}-phenyl)-difluoro-methyl]-phosphonic acid]	6.60 to 7.00
N#Cc1ccc(CN(Cc2ccc(C(F)(F)P(=O)(O)O)c(Br)c2)S(=O)(=O)c2ccccc2Cl)cc1 [Compound 103, [(2-Bromo-4-{[(4-cyano-benzyl)-(2-chlorobenzenesulfonyl)-amino]-methyl}-phenyl)-difluoro-methyl]-phosphonic acid]	6.60 to 7.00
COC(=O)c1ccc(CN(Cc2ccc(C(F)(F)P(=O)(O)O)c(Br)c2)S(=O)(=O)c2ccccc2Cl)cc1 [Compound 104, 4-{[[3-Bromo-4-(difluoro-phosphono-methyl)-benzyl]-(2-chloro-benzenesulfonyl)-amino]-methyl}-benzoic acid methyl ester]	6.60 to 7.00
COc1ccccc1S(=O)(=O)N(Cc1ccc(C#N)cc1)Cc1ccc(C(F)(F)P(=O)(O)O)c(Br)c1 [Compound 105, [(2-Bromo-4-{[(4-cyano-benzyl)-(2-methoxybenzenesulfonyl)-amino]-methyl}-phenyl)-difluoro-methyl]-phosphonic acid]	6.60 to 7.00

From US20060135773A1, “Trisubstituted nitrogen modulators of tyrosine phosphatases” (priority 2004, published 2006)
